Test results published in EP0902002A1, “New derivatives of phthalaldehyde, process for their preparation and their use” (Hoechst Marion Roussel Deutschland GmbH, priority 1997, dated 1999).

Assay: Physicochemical properties: solubility and pH stability

## CC(CCc1c(O)cc(C=O)c(C=O)c1O)C(=O)O (stereo not drawn) [Hericenal C]
In Alkoholen und anderen polaren organischen Lösungsmitteln
  Löslichkeit: lösliche
In neutralem und mild saurem Milieu (vorzugsweise > pH 2)
  Stabilität: stabil
In stark alkalischer Lösung (beispielsweise > pH 8)
  Stabilität: unbeständig
